The term IC50 denotes the concentration that gives 50% inhibition.

Like-named read-outs stand apart in the source and are kept apart here.

In experiment [1] the test system is endogenous Ras processing. To be noted: 5 μM, pZIPneo and Raf cells. Here is the method: (§1) H-RasF cells (45) were seeded on day 0 in 100 mm Dishes (costar) in Dulbecco's modified Eagles medium (GIBCO) and allowed to grow to 40-60% confluency. […] On day 3, cells were washed one time with ice cold PBS and were collected and lysed by incubation for 30-60 min on ice in lysis buffer (41). Lysates were cleared (14,000 rpm, 4° C., 15 min) and supernatants collected. Equal amounts of lysate were separated on a 12.5% SDS-PAGE, transfered to nitrocellulose, and a western blot performed using a anti-Ras antibody (Y13-238, ATCC) or anti-Rap1A antibody (Santa Cruz Biotechnology, Santa Cruz, Calif.). Antibody reactions were visualized using peroxidase-conjugated goat anti-rat IgG for Y13-238 and peroxidase-conjugated goat anti-rabbit IgG for Rap1A and an enhanced chemiluminescence detection system (ECL; Amersham Corp.)

In a further experiment the test system is RasGG processing. To be noted: 5 μM, FIG. 2B. The method, then: as §1
For experiment [2], the system named is Calu-1 human lung carcinoma. To be noted: 50 mg/kg once daily. From the text: Calu-1 (Panel A) and NCI-H810 cells (Panel B) were purchased from ATCC and grown in McCoy's 5A medium in 10% FBS (Fetal Bovine Serum) and RPMI 1640 in 10% FBS, respectively. The cells were harvested, resuspended in PBS and injected s.c. into the right and left flank of 8 week old female nude mice (10^7 cells/flank). Nude mice (Harlan Sprague Dawley, Indianapolis, Ind.) were maintained in accordance with the Institutional Animal Care and Use Committee (IACUC) procedures and guidelines. On day 32 after s.c. implantation of tumors, animals were dosed i.p. with 0.2 ml once daily for 36 days. […] The tumor volumes were determined by measuring the length (l) and the width (w) and calculating the volume (V=(l)×(w)^2 /2). Data are presented as the average volume of eight tumors in each group for each cell line. Statistical significance between control and treated groups were evaluated by using student t test (*P<0.05).
In this model, tumors from two human lung carcinoma cell lines are implanted subcutaneously. One of these (Calu-1) harbors a K-Ras oncogenic mutation and has a deletion of the tumor suppressor gene p53. The other human lung carcinoma ([…]) has no Ras mutations.

Experiment [3] deals with Raf-transformed NIH 3T3 cells. The settings on record: 50 mg/kg once daily.
Experiment [4] concerns oncogenic K-Ras4B activation of MAP kinase. The experiment in a line: Oncogenic K-Ras4B activation of MAP kinase, immunoblot. To be noted: 0-30 μM tested. It counts as cell-based. From the text:
(§2) Equal amounts of protein were separated on a 15% SDS-PAGE, transferred to nitrocellulose, and immunoblotted using an anti-MAP kinase antibody (erk2, monoclonal, UB1, Lake Placid, N.Y.). Antibody reactions were visualized using peroxidase-conjugated donkey anti-mouse IgG (Jackson ImmunoResearch Laboratories Inc., West Grove, Pa.) and an enhanced chemiluminescence detection system (ECL, Amersham Corp.)
(In general: A western blot detects proteins with antibodies after separation by electrophoresis.)

Experiment [5] has as its system oncogenic H-Ras activation of MAPK. The experiment is described as follows: Oncogenic H-Ras activation of MAP kinase, immunoblot. It counts as cell-based. The settings on record: H-RasF cells.
Source text: as §2

Experiment [6] relates to oncogenic Raf activation of MAPK. The settings on record: 5 μM, FIG. 5B.
The subject of a further experiment is Raf-1 kinase. The settings on record: H-RasF cells.
The next experiment deals with Ras/Raf complexes. To be noted: 5 μM, H-RasF cells.
The test system of another experiment is Ras nucleotide state. The settings on record: H-RasF cells.
For the next experiment, the system named is Rap1A processing. The experiment in a line: Rap1A processing assay in NIH 3T3 cells overexpressing oncogenic H-Ras, immunoblot. It counts as cell-based. The settings on record: for IC50: whole cells. Here is the method: as §1
(§3) H-Ras cells (45) and K-Ras4B Cells (32) were kind gifts from Dr. Channing Der and Dr. Adrienne Cox (University of North Carolina, Chapel Hill). Means of obtaining these cell lines will be easily recognized by the skilled practitioner. Cells were seeded on day 0 in 100 mm dishes in Dulbecco's modified Eagles medium supplemented with 10% calf serum and 1% penicillin-streptomycin. […] On day 3, cells were washed and lysed in lysis buffer containing 50 mM HEPES, pH 7.5, 10 mM NaCl, 1% TX-100, 10% glycerol, 5 mM MgCl2, 1 mM EGTA, 25 μg/ml leupeptin, 2 mM PMSF, 2 mM Na3 VO4, 1 mg/ml soybean trypsin inhibitor, 10 μg/ml aprotinin, 6.4 mg/ml Sigma-104® phosphatase substrate. Lysates were cleared (14,000 rpm, 4° C., 15 min) and equal amounts of protein were separated on a 12.5% SDS-PAGE, transferred to nitrocellulose, and immunoblotted using an anti-Ras antibody (Y13-259, ATCC) or an anti-RapIA antibody (SC-65, Santa Cruz Biotechnology, Santa Cruz, Calif.). Antibody reactions were visualized using either peroxidase-conjugated goat anti-rat 1 gG (for Y13-259), or peroxidase-conjugated goat anti-rabbit 1 gG (for Rap1A) and an enhanced chemiluminescence detection (ECL, Amersham Corp.), as described previously (41).

In a further experiment the test system is K-Ras4B processing. The experiment in a line: K-Ras4B processing assay in NIH 3T3 cells overexpressing oncogenic K-Ras4B. The class given is cell-based. The settings on record: whole cells. From the text: H-Ras cells (45) and K-Ras4B Cells (32) were kind gifts from Dr. Channing Der and Dr. Adrienne Cox (University of North Carolina, Chapel Hill). Means of obtaining these cell lines will be easily recognized by the skilled practitioner.

For experiment [7], the system named is H-RasGG activation of MAPK. The settings on record: 5 μM, FIG. 5B.
The subject of the next experiment is H-Ras processing. The experiment in a line: Ras processing assay in H-RasF cells (NIH 3T3 transformed with oncogenic H-Ras-CVLS), immunoblot. The settings on record: for IC50: whole cells. The class given is cell-based. The method, then: as §1, §3

Method for Raf-1 kinase: Raf-1 kinase was assayed by determining the ability of Raf to transfer phosphate from [γ-^32 P] ATP to a 19-mer peptide containing an autophosphorylation site. Membrane and cytosol fraction isolation and Raf immunoprecipitates were washed three times with cold HEPES buffer and twice with kinase buffer (50 mM Tris, pH 7.5, 150 mM NaCl, 12 mM MnCl2, 1 mM DTT, 0.2% Tween 20. Immune complex kinase assays were performed by incubating immunoprecipitaes from membrane and cytosol fractions in 96 μl of kinase buffer with 20 μCi of [γ-^32 P]ATP (10 mCi/ml, Amersham) and 2 μl of the Raf-1 substrate peptide (1 mg/ml, Promega) for 30 min at 25° C. The sequence of the Raf-1 substrate peptide is [sequence]. The phosphorylation reaction was terminated by spotting 50 μl aliquots of the assay mixture onto Whatman P81 for 40 min in 0.5% orthophosphoric acid and air dried. The amount of ^32 P incorporated was determined by liquid scintillation counting.
Method for Ras nucleotide state: H-RasF cells were seeded and treated as above for Ras/Raf interaction and Ras and Rap1A processing. On day 2, however, cells were labeled overnight with [^32 P] orthophosphate at 100 μCi/mo (Amersham PBS13) in 10 ml DMEM-phosphate supplemented with 10% calf serum, 1 mg/ml BSA and 20 mM HEPES, pH 7.5. On day 3, the medium was removed and cells were washed one time in ice-cold PBS, scraped from the plate with a cell scraper, collected and centrifuged. The cell pellet was resuspended in ice-cold hypotonic buffer listed above and the cytosol and membrane fractions were separated according to the above description for Ra/Raf association. The cytosol and membrane fractions were lysed on ice for 60 min in 50 mM Tris, pH 7.5, 5 mM MgCl2, 1% Triton X-100 (TX-100), 0.5% DOC, 0.05% SDS, 500 mM NaCl, 1 mM EGTA, 10 μg/ml aprotinin, 10 μg/ml soybean trypsin inhibitor, 25 μg/ml leupeptin, 1 mM DTT, 1 mg/ml BSA. Lysates were cleared and equal amounts of protein were immunoprecipitated using anti-Ras antibody (Y13-259) along with 30 μl Protein A-Agarose goat anti-rat IgG complex (Oncogene Science) for 60 min at 4° C. […] Plates were analyzed by autoradiogram.
Method for Ras/Raf complexes: Cells were seeded on day 0 in 100 mm dishes in 10 ml Dulbecco's Modified Eagles Medium (GIBCO) supplemented with 10% calf serum (Hyclone) and 1% pen/strep (GIBCO). […] On day 3, cells were collected by centrifugation in ice cold PBS. Cell pellets were then resuspended in ice cold hypotonic buffer (10 mM Tris, pH 7.5, 5 mM MgCl2, 1 mM DTT, 1 mM PMSF) and cells were sonicated to break up cell pellet to promote separation of cytosol and membrane. The cell suspension was then centrifuged at 2,000 rpm for 10 min to clear debris after which the supernatant was loaded in ultrocentrifuge tubes and spun for 30 min at 100,000×g to SW Ti55 Rotor to separate membrane and cytosol fractions. The cytosol and membrane fractions were lysed on ice for 60 min in buffer containing 30 mM HEPES, pH 7.5, 1% TX-100, 10% glycerol, 10 mM NaCl, 5 mM MgCl2, 2 mM Na3 VO4, 25 mM NaF, 1 mM EGTA, 10 μM soybean trypsin inhibitor, 25 μg/ml leupeptin, 10 μg/ml aprotinin, 2 mM PMSF). The lysates were clarified by centrifugation. Equal amounts of cytosol and membrane fractions were immunoprecipitated using 50 μl of a 25% Protein-A Sepharose Cl-4B suspension (Sigma) with 1 μf/ml anti-c-Raf-1 (SC133, Santa Cruz Biotechnology, Santa Cruz, Calif.). The samples were tumbled at 4° C. for 60 min and then washed 5 times in 50 mM HEPES, pH 7.5, 100 mM NaCl, 5 mM MgCl2, 0.1% TX-100, 10% glycerol, 20 mM NaF. […]

For `COC(=O)[C@H](CCSC)NC(=O)c1ccc(NC[C@@H](N)CS)cc1-c1ccccc1` [FTI-277, 4-N-[2(R)-Amino-3-mercaptopropyl]amino-2-phenylbenzoyl methionine methyl ester], in experiment [1], the “processing of endogenous Ras” value is on record as “blocked”. For the same compound, the “processing of RasGG” value with RasGG processing was “not affected”. In addition, the “tumor growth of Calu-1” value in [2] was “inhibited the growth of Calu-I cells to the same extent”. The “growth of Raf-transformed NIH 3T3 cells” value in experiment [3] is on record as “had no effect”. For the same compound, the “lowest concentration inhibiting K-Ras4B MAP kinase activation” value in experiment [4] is 30 µM. The “lowest effective concentration, inhibition of oncogenic Ras activation of MAPK” value in experiment [5] is on record as 300 nM. Moreover, the “block of oncogenic Raf activation of MAPK” value in experiment [6] is “not blocked”. Besides, the “oncogenic Ras-F induced activation of Raf kinase in the plasma membrane” value in the experiment with Raf-1 kinase is on record as “suppressed this activation”. Also, the “Ras/Raf association in membrane and cytosolic fractions” value with Ras/Raf complexes is “accumulation of Ras/Raf complexes in the cytosolic but not membrane fractions”. In addition, in the experiment with Ras nucleotide state, the “nucleotide state of non-farnesylated cytosolic Ras” value is “GTP bound”. Further, the IC50 in the experiment with Rap1A processing (Table 5, read-out: In Vivo Processing IC50 Rap1A) is 50 µM; with Rap1A processing (read-out: Rap1A processing IC50), 50 µM; in the experiment on K-Ras4B processing (Table 5, read-out: In Vivo Processing IC50 K-Ras), 10 µM; in the experiment on K-Ras4B processing (read-out: K-Ras4B processing IC50), 10 µM; in the experiment on H-Ras processing (Table 5, read-out: In Vivo Processing IC50 H-Ras), 0.1 µM; in the experiment with H-Ras processing (read-out: H-Ras processing IC50), 0.1 µM. Also, in the experiment with Rap1A processing (concentrations as high as 10 μM), the “inhibition of processing of geranylgeranylated Rap1A” value is given as “did not inhbit processing”. The “block of H-RasGG activation of MAPK” value in [7] is “able to block H-RasF but not H-RasGG activation of MAPK”. For the same compound, the “processing of RasF” value in the experiment with H-Ras processing (5 μM, FIG. 2B) is on record as “completely blocked”. Besides, the “concentration at which Ras processing was blocked” value in the experiment on H-Ras processing (H-RasF cells) came to 1 µM.

Values taken from US5965539A, “Inhibitors of prenyl transferases” (Univeristy of Pittsburgh, priority 1996, dated 1999).
